Measurements: the OligoGym collection
These antisense oligonucleotides have a phosphorothioate backbone; sugars and methylation of C are not fully specified.

Experiments:
Conditions in all cases: ASO
IL15 = target: IL15
IKBKB = target: IKBKB
RHOG = target: RHOG
Further: test concentration or dose not given here.

Sequence	remaining target (mRNA or protein) (fraction of control) (IL15)	remaining target (mRNA or protein) (fraction of control) (IKBKB)	other results
AAAAGAAAGGGAGGGAAT	≥ 1	–	–
AAGAAGTGTTGATGAACA	0.83	–	–
AATGTCACTCAGCAAGGT	–	0.25	–
ACACAAGTAGCACTGGAT	0.43	–	–
ACACCTACCTTTTAATAA	≥ 1	–	–
ACTCAAAGGCCAGGGTGC	–	0.59	–
ACTCTAGGCCCATAGCAA	0.58	–	–
ACTGGGTATATTAGCTGC	0.58	–	–
ACTGGTTCAGGTACTTCC	–	0.88	–
ACTTCTGCTGCTCCAGTA	–	0.58	–
AGACATGAATGCCAGCTT	0.26	–	–
AGCTGGCTATGGCAAGGG	0.35	–	–
AGGCATTAGTAGAGTAAA	0.92	–	–
AGGGTGCAGAGGTTATGT	–	0.48	–
AGTGAAATAACTTGTAAC	≥ 1	–	–
AGTTTATCTGATGTGATC	–	0.8	–
ATAATGGTATGGAGGAAG	0.6	–	–
ATATTACTCAATGACATT	≥ 1	–	–
ATCCTAGGTCAATAATTT	–	0.97	–
ATGCATCACCTTTAATCT	0.65	–	–
ATTAGAAGACAAACTGTT	≥ 1	–	–
ATTTAGGTAAGCTACTCT	0.75	–	–
CACAGGGTAGGTGTGGAT	–	0.6	–
CAGCTGTGCTCTTCTTCT	–	0.75	–
CATAGCAAGTACATGACA	0.46	–	–
CCAATACCATGAAGGCAT	0.25	–	–

Sequence	remaining target (mRNA or protein) (fraction of control) (IL15)	remaining target (mRNA or protein) (fraction of control) (IKBKB)	other results
CCACCACGCACTTGATGC	–	–	remaining target (mRNA or protein) (fraction of control) (RHOG): 0.86
CCAGCTTCAGTTAGAAAA	≥ 1	–	–
CCATCCACGATGCCTCCT	0.5	–	–
CCCCACATGTCTGCGTTG	–	0.12	–
CCCTGCTGCGGTGTGATG	–	–	remaining target (mRNA or protein) (fraction of control) (RHOG): 0.56
CGCACGTTCTCATAGGAC	–	–	remaining target (mRNA or protein) (fraction of control) (RHOG): 0.76
CGCGAGTGCCTGGCCCTG	–	–	remaining target (mRNA or protein) (fraction of control) (RHOG): 0.91
CGTGAAACTCTGGTCTTG	–	0.48	–
CTAGGGTAAAGTATGATC	≥ 1	–	–
CTCAGCTGGAAGAAGGCG	–	0.4	–
CTCGAAGCTCTGAATTGC	–	0.48	–
CTGAACTGAGAGTCAGAT	0.27	–	–
CTGAGTGGCAGGCTTATC	–	0.28	–
CTGGGATGCCCGTGTCCT	–	≥ 1	–
CTGTCCCAAGGCGCTCTT	–	0.42	–
CTGTTTTAGGAAGCCCTG	0.58	–	–
CTTCGCTAACAACAATGT	–	≥ 1	–
CTTCTGCTTGCAAACCAC	–	0.82	–
CTTTTAATAAGCACTCTA	≥ 1	–	–
GAACACTTCCTTGACACC	–	–	remaining target (mRNA or protein) (fraction of control) (RHOG): 0.69
GACAACAGTCTTCTCATC	–	0.77	–
GACCTGGTGCCCCTCCCG	–	–	remaining target (mRNA or protein) (fraction of control) (RHOG): 0.65
GAGGAGATTCATCATGGC	–	0.97	–
GAGGGCAGAGGTTAGAGA	–	–	remaining target (mRNA or protein) (fraction of control) (RHOG): 0.79
GCAGCCTCCAAGCCAAGT	–	–	remaining target (mRNA or protein) (fraction of control) (RHOG): 0.58
GCATCGTGGGTGCAGTTG	–	–	remaining target (mRNA or protein) (fraction of control) (RHOG): 0.53

Sequence	remaining target (mRNA or protein) (fraction of control) (IL15)	remaining target (mRNA or protein) (fraction of control) (IKBKB)	other results
GCCAGGACACTGTTAAGA	–	0.43	–
GCCCTGCACTGAAACAGC	0.39	–	–
GCCTCCTACAATACAATC	≥ 1	–	–
GCGCGCTGTAATTGTCGA	–	–	remaining target (mRNA or protein) (fraction of control) (RHOG): 0.64
GCTCAGGTAAGCTGTTGG	–	0.45	–
GCTTTAGATCCCGATGGA	–	0.46	–
GGAGAGGCAGCTGTTGTT	–	0.43	–
GGCAGTGCCTCCTCTCTC	–	–	remaining target (mRNA or protein) (fraction of control) (RHOG): 0.65
GGGAAGGTGACCAGCTCA	–	0.3	–
GGGCTCTTGAAGGATACA	–	0.39	–
GGGCTTCCACTGACAGGA	–	0.18	–
GGGTCCAACCTTGGCTTG	–	–	remaining target (mRNA or protein) (fraction of control) (RHOG): 0.42
GGGTGAACATCACTTTCC	0.43	–	–
GGGTGTCAGGCTGGGCTC	–	–	remaining target (mRNA or protein) (fraction of control) (RHOG): 0.85
GGTTCACTGTGCGCCCGT	–	–	remaining target (mRNA or protein) (fraction of control) (RHOG): 0.84
GTACATGACAGCCAGGAT	0.35	–	–
GTAGCGCACAGCGTGGAT	–	–	remaining target (mRNA or protein) (fraction of control) (RHOG): 0.65
GTATTGAAGAAGAGCTGG	≥ 1	–	–
GTCAGCAAATGCGTAAGG	–	–	remaining target (mRNA or protein) (fraction of control) (RHOG): 0.76
GTCAGCCTTCTCATGATC	–	≥ 1	–
GTCAGTAGCGGAAAATGG	–	–	remaining target (mRNA or protein) (fraction of control) (RHOG): ≥ 1
GTCCCACAGGTTCAGGTT	–	–	remaining target (mRNA or protein) (fraction of control) (RHOG): 0.69
GTGCAGTTGCTGTAGTGA	–	–	remaining target (mRNA or protein) (fraction of control) (RHOG): 0.9
GTTAGGTGCTTTGGGCCA	0.13	–	–
GTTCCATTCAAGTCTTCG	–	0.78	–
TACATTCACCCAGTTGGC	0.24	–	–

Sequence	remaining target (mRNA or protein) (fraction of control) (IL15)	remaining target (mRNA or protein) (fraction of control) (IKBKB)	other results
TACTTCTCAAATGTGGTT	≥ 1	–	–
TCACATTCTTTGCATCCA	0.31	–	–
TCATCTTCTTGACAGAAA	≥ 1	–	–
TCCTGTACAGCTCCCTTG	–	0.13	–
TCTTCTGGACCCCTCTGG	–	–	remaining target (mRNA or protein) (fraction of control) (RHOG): 0.64
TGAGTCTCATAGGTGATT	–	≥ 1	–
TGATGGCAATCTGCTCAC	–	≥ 1	–
TGCACGGGCTGCCAGTTG	–	0.46	–
TGGAGAAGGGAGAGAGCA	–	–	remaining target (mRNA or protein) (fraction of control) (RHOG): 0.68
TGTAAGTCCACAATGTCG	–	0.61	–
TGTACGGAGGCGGTCATA	–	–	remaining target (mRNA or protein) (fraction of control) (RHOG): 0.63
TGTATTAACCTCTGTTCT	–	≥ 1	–
TTAACTTGCCGTCTGAAA	–	0.8	–
TTAAGATGTCATCCAGGG	–	≥ 1	–
TTAGCTGCATCCCAAAAT	0.48	–	–
TTAGTAGCATTTAGGTAA	≥ 1	–	–
TTCAAGATATGAACCAGC	–	0.54	–
TTCAATAATAAATTAAAA	≥ 1	–	–
TTCTCATTACTCAAAGCC	0.87	–	–
TTGGCCTTGAGCTGCTGA	–	0.31	–
TTGTGTAGCAGATGAGCA	–	–	remaining target (mRNA or protein) (fraction of control) (RHOG): 0.65
TTGTTATGTCTAAGCAGC	0.47	–	–
TTTCACTTCGTTCTCCCG	–	0.33	–
